According to patent publication US20050208542A1, “Methods of genotoxicity screening, and biosensors” (priority 2004, published 2005):

Experiments:
ST ds-DNA = assay: Capillary electrophoretic analysis of hydrolyzed DNA reacted with styrene oxide; assay type: biochemical, salmon testes; settings: (PDDA/DNA)2 film on carbon cloth, saturated styrene oxide, 48 hr, 37° C., compared with undamaged hydrolyzed DNA
Experimental: (§1) Capillary electrophoretic analysis. A Beckman PACE 5000 with UV detector at 254 nm was used for capillary electrophoresis (CE) to analyze hydrolyzed DNA that had been reacted with styrene oxide. 1 mg mL^−1 ST ds-DNA in 50 mL buffer or (PDDA/DNA)2 films on 3×10 cm carbon cloth in solution were reacted in 50 mL buffer and 0.87 mmol styrene oxide at 37° C. with stirring. Reacted DNA in solution or in films was hydrolyzed by incubating with deoxyribonuclease I (0.1 mg per mg of DNA) for 20 hr at 37° C., followed by incubation with phosphodiesterase I (0.01 unit/mg DNA) and phosphatase, alkaline (0.6 unit/mg DNA) for 5 hours at 37° C. The resulting samples, consisting mainly of individual nucleosides, were analyzed using CE with 20 mM pH 7 phosphate buffer and 100 mM SDS. The capillary was 75 μm×50 cm, with a polyimide coating. To make standard styrene oxide adducts, 0.5 mg mL^−1 guanosine or adenosine were reacted with styrene oxide.
It was previously shown that that styrene oxide is formed from styrene using Mb and cyt P450cam films. However, available capillary electrophoresis and HPLC-MS/MS methods were not sensitive enough to detect and identify damaged DNA directly from the protein-DNA films. Thus, capillary electrophoresis and HPLC-MS were used to confirm that reaction of styrene oxide with DNA in (PDDA/DNA)2 films and in solution gave the reported DNA-styrene oxide adducts. […]

ds-ST-DNA = assay: HPLC-MS/MS of hydrolyzed DNA reacted with styrene oxide; assay type: biochemical, salmon testes; settings: ds-ST-DNA incubated with styrene oxide 48 hours at 37° C., HPLC-MS/MS (MRM)
Experimental: as §1
Liquid chromatography (LC)-mass spectrometry (MS). A Perkin-Elmer LC with diode-array (255 nm and 280 nm) and mass spectrometer (Micromass, Quattro II) detection were used. Full-scan spectra were taken at low cone voltage (15 V) in the positive ion mode (ESI). The HPLC column was Restek Ultra C-18 reversed-phase (i. d. 2.1 mm, length 10 cm, particle size 5 μm). Solvents were A: 5% acetonitrile/95% water with 0.05% TFA and B: 100% acetonitrile with 0.05% TFA. […]

poly[G] = assay: ECL/SWV of (Ru-PVP/poly[G])2 films after incubation; assay type: biochemical; settings: 10 minutes incubation, saturated solution
Experimental: Reactions with Styrene Oxide.
In addition to catalytic oxidation of guanines, it is possible that adducts formed on DNA by reaction with styrene oxide could be catalytically oxidized by the ruthenium metallopolymer. To assess this possibility, styrene oxide was incubated with films containing individual polynucleotides and the metallopolymer. […] An 80% increase in SWV peak current and a 40% increase in ECL intensity was found.

ds-CT DNA = assay: ECL/SWV of (Ru-PVP/ds-DNA)2 films after incubation; settings: saturated solution, 37° C., pH 5.5
Experimental: Film assembly. DNA-redox polymer films were constructed by the layer-by-layer electrostatic assembly method. Basal plane PG electrodes were polished with 400 grit SiC paper and then with 0.3 μm α-alumina slurries on Buehler Microcloth, washed with water, sonicated in ethanol for 15 minutes, and then sonicated in water for 15 minutes. Layers were constructed by placing a 30 μL drop of 0.2% aqueous [Ru(bpy)2(PVP)10](CIO4)2 onto each PG electrode, allowing 15 minutes to achieve saturated adsorption and then washing with water. Subsequently, 30 μL of DNA solution (2 mg mL^−1 DNA in 5 mM pH 5.5 acetate buffer+0.05 M NaCl) was place on this PG surface, allowed to adsorb 15 min, and then washed with water. This sequence was repeated to obtain films with 2 redox polymer/DNA bilayers. Films containing ss-DNA and other polynucleotides were also assembled in this way. Assembly of films was monitored at each step with a quartz crystal microbalance.
Reactions with Styrene Oxide. Incubations of films were done in styrene oxide solutions in a stirred reactor at 37.0±0.5° C. […] PG electrodes coated with polynucleotide or DNA films were incubated in the stirred emulsion and then rinsed with water and transferred to the electro-chemical cell containing pH 5.5 buffer for SWV/ECL analysis.
Error bars in FIGS. 22, 23 are mainly the result of electrode-to-electrode variability.

ds-DNA [1] = assay: SWV with Co(bpy)3^3+ electroactive probe, PDDA/ds-DNA(/Mb/ds-DNA)2 films; assay type: biochemical, calf thymus (CT), salmon testes (ST)
Experimental: (§2) Film construction. Films were grown on PG disks (pyrolytic graphite) that had been abraded on 400 grit SiC paper, then with coarse Emery paper (3M Crystal Bay), then ultrasonicated in water for 30 seconds. Layers of ds-DNA and protein were adsorbed alternately for 15 minutes onto the rough PG electrodes, and washed with water between adsorption steps. Adsorbate solutions were: (a) 2 mg mL^−1 DNA in 5 mM pH 7.1 TRIS buffer and 0.50 M NaCl; (b) 2 mg mL^−1 PDDA in 50 mM NaCl; (c) 3 mg mL^−1 Mb in 10 mM pH 5.5 acetate buffer; and (d) 1 mg mL^−1 cyt P450cam in the pH 5.5 buffer. Film of architecture denoted PDDA/DNA(/Mb/DNA)2 or PDDA/DNA(/cyt P450cam/DNA)2 were employed.
(§3) Incubation of DNA/protein films for metabolite generation and reaction with DNA was done in a thermostated vessel at 37° C. containing 1-4% styrene (by volume). To activate the enzymes for styrene oxide formation, 0.2 to 2 mM H2O2 was added to 10 mL pH 5.5 buffer containing 50 mM NaCl. […] For the probe binding method, washed electrodes were transferred to pH 5.5 buffer containing 20 μM Co(bpy)3^3+.
(§4) Voltammetry. CH Instruments 660A and CH 430 electrochemical analyzers were used for square wave voltammetry (SWV), with ˜95% ohmic drop compensated. […]
(§5) The time course of the reaction can readily be monitored via the ratio of initial SWV peak current for a given film (Ip,i) to that after reaction (Ip,f). […]

ST-ds-DNA = assay: Catalytic SWV with Ru(bpy)3^2+ of DNA(Cyt P450cam/ST-ds-DNA)2 films after incubation
Experimental: as §2
Incubation of DNA/protein films for metabolite generation and reaction with DNA was done in a thermostated vessel at 37° C. containing 1-4% styrene (by volume). To activate the enzymes for styrene oxide formation, 0.2 to 2 mM H2O2 was added to 10 mL pH 5.5 buffer containing 50 mM NaCl. After incubation, the electrodes were rinsed with water and transferred to pH 5.5 buffer containing 50 μM Ru(bpy)3^2+ for analysis by catalytic SWV.
as §4

ds-DNA [2] = assay: Catalytic SWV with Ru(bpy)3^2+ of PDDA/ds-DNA(/Mb/ds-DNA)2 films after incubation; assay type: biochemical, calf thymus (CT), salmon testes (ST)
CT-ds-DNA = assay: SWV of Ru/Mb/DNA films (PSS/ClRu-PVP/CT-ds-DNA/(Mb/CT-ds-DNA)2) after incubation; settings: for SWV peak current at 0.75 V: saturated styrene or toluene and H2O2, pH 5.5
Experimental: Film Assembly. Basal plane PG electrodes were polished with 400-grit SiC paper and then ultrasonicated for 30 seconds each in ethanol and then in water. Electrodes were dried in nitrogen and dipped into 6 mg mL^−1 PSS containing 0.5 M NaCl for 15 min. After washing with water, these PG electrodes were then dipped into 0.05% (m/V) [Ru(bpy)2(PVP)10Cl)]Cl (denoted hereafter as CIRu-PVP) in 5% ethanol/water for 15 minutes. Adsorption for 15 min provides steady-state adsorption of PSS on oppositely charged surfaces.^18, 19
After fabricating PSS/CIRu-PVP films, electrodes were dipped into 2 mg mL^−1 CT ds-DNA in pH 7.0 Tris buffer containing 0.5 M NaCl for 15 min, rinsed with water, and then dipped into 2 mg mL^−1 PDDA. Alternate adsorption cycles were repeated until the desired number of layers were made. Final film structure is denoted as PSS/CIRu-PVP/CT-ds-DNA/PDDA/CT-ds-DNA.
For films containing Mb, PG electrodes were abraded with 400-grit SiC paper, rinsed with water, further roughened using medium Crystal Bay emery paper (PH4 3M 001K), and then ultrasonicted in ethanol and water successively for 30 seconds. […] Additional steps were the same as above except PDDA was replaced with 3 mg mL^−1 Mb in pH 5.5 buffer. Final film structure is denoted as PSS/CIRu-PVP/CT-ds-DNA/(Mb/CT-ds-DNA)2. Electrochemical surface area was estimated at 0.21 cm^2 using peak currents of soluble ferricyanide and the Randles-Sevcik equation.
H2O2 activates Mb to oxidize styrene to styrene oxide.

ds-CT-DNA = assay: SWV with Co(bpy)3^3+ electroactive probe, PDDA/ds-CT-DNA(cyt P450cam/ds-CT-DNA)2 films; settings: 4% styrene + 2 mM H2O2
Experimental: as §2, §3
CH Instruments 660A and CH 430 electrochemical analyzers were used for square wave voltammetry (SWV), with ˜95% ohmic drop compensated. […]
as §5

SMILES	DNA-styrene oxide adduct peaks in capillary electropherogram (ST ds-DNA)	Number of styrene oxide adducts each for dA and dG (ds-ST-DNA)	Increase in ECL intensity (poly[G])	Increase in SWV peak current (poly[G])	ECL peak vs. incubation time (ds-CT DNA)	SWV peak vs. incubation time (ds-CT DNA)	Ip,i/Ip,f peak current ratio vs. reaction time (ds-DNA [1]; Mb films, 4% styrene or 4% toluene + 2 mM hydrogen peroxide, over 45 min)	SWV peak height for reduction of Co(bpy)3^3+ at 0.04 V vs. SCE (ds-DNA [1]; Mb/ST-ds-DNA films, 4% styrene and 2 mM H2O2, 37° C., pH 5.5, 20 μM Co(bpy)3^3+)	Rate of increase of SWV peak current, less than with Mb/ST-DNA films (ST-ds-DNA; cyt P450cam films versus Mb/ST-DNA films, styrene and hydrogen peroxide)	SWV catalytic peak current (DNA damage) (ST-ds-DNA; cyt P450cam/ST-ds-DNA films, 2% styrene + 0.2 mM H2O2, 50 μM Ru(bpy)3^2+)	Dependence of catalytic SWV peak height on styrene concentration (ds-DNA [2]; Mb/DNA films activated by H2O2, styrene 1-4%)	Catalytic SWV oxidation peak current (DNA damage) (ds-DNA [2]; Mb/DNA films, 37° C., pH 5.5, with 0.2 mM H2O2, 2% styrene, 2% toluene or 0.2 mM benzaldehyde, read in 50 μM Ru(bpy)3^2+)	Catalytic SWV oxidation peak current (DNA damage) (ds-DNA [2]; ST-DNA/Mb films, 2% styrene but no H2O2)	Ratio of final peak current after incubation to initial peak current (CT-ds-DNA; saturated styrene and H2O2, pH 5.5)	SWV peak current at 0.75 V (CT-ds-DNA)	Slope of Ip,i/Ip,f peak ratio vs. time, compared with Mb films (ds-CT-DNA)
c1ccc(C2CO2)cc1 (stereo not drawn) [styrene oxide]	new peaks evident	at least 4	40%	80%	increases in the ECL and the SWV peaks were observed with increasing incubation time	increases in the ECL and the SWV peaks were observed with increasing incubation time										
C=Cc1ccccc1 [styrene]							linear increases	decreased with incubation time	about 30%	rapid increase in SWV peak current for the first five minutes was followed by a slower increase from 5-30 minutes	did not depend on styrene concentration between 1-4%	increased with reaction time	No significant increases in peak current or trends with incubation time	showed an increase over the first 15 minutes and then decreased gradually	increased	smaller slopes
Cc1ccccc1 [toluene]			nearly identical to initial values	nearly identical to initial values	showed no trends with incubation time	showed no trends with incubation time									did not show increases	
